Experimental data reported in patent US11666562B2, “Ilaprazole for inhibiting the release of enveloped viruses from cells” (Northwestern University, priority 2020, dated 2023).
pEC50: −log10 of the molar value.

Tests used:
HIV-1 = settings: earlier reports (refs 5, 29); cited from earlier work
HSV-2 = experiment: Release of HSV-2 from infected Vero cells, plaque assay; assay type: cell-based, Herpes simplex virus-2(A/B-G); settings: for Anti-HSV-2 activity (release from Vero cells), in words: Table 2, 24 h
Description: (§1) We infected Vero cells with HSV-1 and HSV-2 for two hours at a multiplicity of infection (MOI in pfu\cell) of 0.1 to assay the antiviral activity of tenatoprazole. Following infection, cells were treated with different concentrations of tenatoprazole. After 24 or 48 h the media fractions were collected and released virus titers were determined by standard plaque assays (30). Tenatoprazole caused a 3-log drop of HSV-1 and 4-5 log drop of HSV-2 in released infectious virus from Vero cells at 24 hours after infection in a dose dependent manner (Table 1, shown in FIG. 5, columns 2 and 3) with calculated EC50's ranging from 48-80 μM. Total virus titer was also determined to differentiate between virus released into the media and infectious particles present in cell lysate. […] The concentrations of tenatoprazole that blocked virus release were nontoxic to Vero cells as determined by a 96® AQueous One Solution cell proliferation assay reagent (Table 1, shown in FIG. 5, column 7). Taken together, tenatoprazole inhibited levels of both released and infectious virus particles without affecting cell viability at effective concentrations.
To examine the effects of the compounds on the release of HSV-2 from Vero cells, we infected the cells with virus two hours prior to treatment with media containing different concentrations of compound. We incubated the cells for 24 or 48 hours and then collected the cell media fractions.
(§2) Herpesvirus infection of Vero cells. Vero cells (0.8×10^6 cells/well of a 6-well plate) were infected with HSV-1 or HSV-2 at a MOI of 0.1 pfu/cell in DMEM with 1% serum for two hours in the C02 incubator at 37° C. In one experiment looking at the effect of tenatoprazole on HSV-2 release from cells 24 and 48 h a MOI of 3 pfu/cell was used. The cell supernatants were aspirated and replaced with 1 ml (24 h) or 2 ml (48 h and 72 h) of DMEM with 1% serum with DMSO or different concentrations of drug (tenatoprazole, ilaprazole, or analogs) dissolved in DMSO. After 24 or 48 h incubation, the cell supernatant was collected and frozen at −80° C. Virus titer in the cell media fraction was determined by standard plaque assays using 10-fold serial dilutions of cell supernatants of Vero cells and incubated for 48 h after which cells were fixed and stained to count the plaques (22). For determination of total virus (extracellular+cytoplasmic), virus infected cells were incubated for 24 h with and without drug presence, then the plate of cells were subjected to 3 cycles of freeze/thawing (−80° C./37° C.) 30 min each prior to collecting the supernatant after centrifugation for measurement of total virus titer. Virus titer was measured by standard plaque assay as above.
(§3) Drug potency and cell toxicity. EC50 calculations were determined by using AAT Bioquest's EC50 calculator. Cell toxicity at different concentrations of drugs as indicated was determine using the Cell Proliferation Reagent WST-1 (Roche Diagnostics) or cellular 96® Aqueous One Reagent viability reagent according to manufacturer's instructions. For 293T cells, the concentration of DMSO was 0.2% or less and assays were carried out with DMEM with 10% serum. Cell toxicity experiments were repeated twice.

HSV-1 = experiment: Release of HSV-1 from infected Vero cells, plaque assay; assay type: cell-based, Herpes simplex virus-1 (Kos strain); settings: different concentrations, repeated 4 times
Description: as §1, §2, §3

[1] = molecular target: T1, Tsg101-UEV (Tsg101 amino acids 1-145) (Homo sapiens, UniProt Q99816); experiment: Fluorescence thermal shift (FTS) assay, binding to Tsg101-UEV; settings: FTS, Sypro-Orange, no DTT
T1 construct: The recombinant Tsg101 fragment (amino acids 1-145), prepared as described above in Materials and Methods; His6 (N); thrombin protease cleavage site (N); made in house; host or cells: E. coli ROSETTA 2 (DE3) pLysS
T1 sequence (Q99816 1-145): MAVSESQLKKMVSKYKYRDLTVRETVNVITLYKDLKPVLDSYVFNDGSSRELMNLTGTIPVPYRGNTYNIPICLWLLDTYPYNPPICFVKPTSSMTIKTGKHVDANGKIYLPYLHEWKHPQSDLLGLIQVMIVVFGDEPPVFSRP
Description: The fluorescence-based thermal shift assay is based on the observation that a protein unfolds upon heating, exposing the hydrophobic residues within its tertiary structure. The unfolding temperature (Tm) is determined by the protein's primary sequence and solution environment. The FTS assay uses a fluorescent dye sensitive to a hydrophobic environment to probe protein stability and its modulation by small molecule ligands. The dye has a low fluorescence quantum yield when in a polar environment. Once in contact with the hydrophobic core normally buried within a folded protein that has become exposed during the thermal unfolding (melting) process, the quantum yield of the dye increases, thus providing a reporting signal. Furthermore, a protein's stability can be affected by ligand binding, resulting in an increase or decrease in its melting temperature. FTS assay uses the Tm shift upon binding of a ligand to identify hit compounds for drug discovery.
Identification of prazole compounds that bind the UEV ubiquitin-binding domain of Tsg101. We screened chemical compounds using a fluorescence thermal shift (FTS) assay (27, 28) to identify small molecules that bind directly to a truncated form of Tsg101 (amino acids 1-145) which contains the Ubiquitin E2 variant (UEV) ubiquitin-binding domain (FIG. 1). The UEV, which contains the PT/SAP binding domain in addition to the ubiquitin-binding domain, provides chaperone functions to HIV-1 Gag that is independent of its interaction with the PS/TAP motif, and contains the prazole binding site (5). This truncated Tsg101, called Tsg101-UEV, was used because full-length Tsg101 has significant solubility issues in aqueous solution. Tsg101 is an adaptor protein and thus lacks a readily deployable functional assay, making FTS a tractable approach to identify interacting compounds. FTS monitors protein thermal denaturation using SYPRO-Orange, a dye which fluoresces when bound to hydrophobic surfaces, which allows monitoring of the changes in hydrophobic surface exposure during protein denaturation (27). Since ligand binding affects protein thermal stability, it can be detected through modulation of protein thermal denaturation (melting) as a shift in melting temperature (Tm). Tsg101-UEV has a well-defined melting curve suitable for FTS. We used the FTS assay to identify compounds that bind to Tsg101-UEV.
Purification of Tsg101 (1-145). N-terminally His6-tagged Tsg101 UEV domain (amino acids 1-145), called Tsg101-UEV, was encoded in a pET-28b vector (Novagen—EMD Millipore), which also included a thrombin protease cleavage site (His6-Thrombin Site-Tsg101, 1-145). Tsg101-UEV was grown in LB broth with Kanamycin (30 μg/ml) in ROSETTA 2 (DE3) pLysS E. coli competent cells (EMD Millipore) and induced with 1 mM IPTG at room temperature for 3 h. Bacteria were collected by centrifugation at 4,000 rpm for 10 min at […]. Bacteria were suspended in 50 ml binding buffer (20 mM Tris-HCl, pH 7.9, 0.5 M NaCl, 5 mM Imidazole) with 1 mM PMSF, 0.1% NP40, and a Protease Inhibitor Cocktail Tablet (Roche) and sonicated for 3.5 min on ice. The sonicate was spun at 9,000 rpm for 1 h at […] in a Sorvall centrifuge. The supernatant was collected and passed through a 1.5 ml Ni-NTA Agarose column. The column was washed with 20 mM Tris-HCl, pH 7.9, 0.5 M NaCl, 30 mM Imidazole wash buffer. […] Protein concentration was determined with a Nano Drop Spectrophotometer at […]. […]

For `COc1ccc2nc([S@@+]([O-])Cc3ncc(C)c(OC)c3C)[nH]c2c1` [esomeprazole], which “Inhibition of release of infectious HIV-1 from 293T cells” value (HIV-1) is on record?
The value was “quantitatively inhibit the release”.

What about the pEC50 (HSV-2; Human alphaherpesvirus 2, Vero cells, MOI 0.1, 24 h, read-out: EC50, inhibition of HSV-2 release) of the same compound?
The pEC50 was 3.85.

With `COc1ccnc(C[S+]([O-])c2nc3ccc(OC(F)F)cc3[nH]2)c1OC` (stereo not shown) [pantoprazole] as the compound, how does the “Anti-HSV-2 activity (release from Vero cells), in words” value (HSV-2) read?
Its value is “inactive”.

Which “Anti-HSV-2 activity (release from Vero cells), in words” value (HSV-2) does the source give for `COCCCOc1ccnc(C[S+]([O-])c2nc3ccccc3[nH]2)c1C` (stereo not shown) [rabeprazole] here?
Its value is “inactive”.

With `NC(CO)C(=O)NNCc1ccc(O)c(O)c1O` (stereo not shown) [benserazide (K21), benserazide] as the compound, how does the “Effect on release of HSV-1 from VERO cells” value (HSV-1) read?
The value was “did not appear to affect release of virus from cells”.

Which results are given for `COc1ccc2nc([S+]([O-])Cc3c(C)c(OC)c(C)c[n+]3[O-])[nH]c2c1` (stereo not shown) [omeprazole-N-oxide]?
Tm (melting temperature) shift of Tsg101-UEV [1]: did not cause a detectable thermal shift; Anti-HSV-2 activity (release from Vero cells), in words (HSV-2): inactive
